In PubChem BioAssay AID330 (DTP/NCI, 2004) one finds T/C data, which are given here for 18 compounds.

The subject of this assay is P388 leukemia ip, CD2F1 mice, survival T/C. As to the kind of experiment: NCI In Vivo Anticancer Drug Screen. Data for tumor model P388 Leukemia (intraperitoneal) in CD2F1 (CDF1) mice. The following applies: endpoint: median survival time, higher = longer survival. An outline of the steps:
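Mice carrying the transplanted tumor received test compound or vehicle. Survival was recorded in each group, and the value is the treated-group measurement divided by that of the vehicle-treated control group.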

[1] abbreviates: dose: 12.5 mg/kg/injection, schedule: Q01DX009 (ip), vehicle: Klucel (hydroxypropylcellulose) (HPC).
The mark [2] stands for this setting: dose: 25.0 mg/kg/injection, schedule: Q01DX009 (ip), vehicle: Klucel (hydroxypropylcellulose) (HPC).
[3] abbreviates: dose: 50.0 mg/kg/injection, schedule: Q01DX009 (ip), vehicle: Klucel (hydroxypropylcellulose) (HPC).
Setting [4] is: dose: 100.0 mg/kg/injection, schedule: Q01DX009 (ip), vehicle: Klucel (hydroxypropylcellulose) (HPC).
Setting [5] is: dose: 200.0 mg/kg/injection, schedule: Q01DX009 (ip), vehicle: Klucel (hydroxypropylcellulose) (HPC).
The mark [6] stands for this setting: dose: 50.0 mg/kg/injection, schedule: Q01DX005 (ip), vehicle: saline with Tween-80.
[7] abbreviates: dose: 100.0 mg/kg/injection, schedule: Q01DX005 (ip), vehicle: saline with Tween-80.
[8] abbreviates: dose: 200.0 mg/kg/injection, schedule: Q01DX005 (ip), vehicle: saline with Tween-80.
The mark [9] stands for this setting: dose: 50.0 mg/kg/injection, schedule: Q01DX009 (ip), vehicle: saline.

Several values for one entry are separate records, joined by “and”; a condition that tells them apart may be missing. Identical values can stand only once. Inconclusive results and toxic doses are left out.

On to `COc1cccc2c1C(=O)c1c(O)c3c(c(O)c1C2=O)C[C@](O)(C(=O)CO)CC3OC1CC(N)C(OC2CCCCO2)C(C)O1` (some centres not stated), for which the T/C runs as follows: (dose: 0.78 mg/kg/injection, schedule: Q04DX003 (ip), vehicle: water) 122 % of control; (dose: 3.12 mg/kg/injection, schedule: Q04DX003 (ip), vehicle: water) 153 % of control and 240 % of control; (dose: 3.13 mg/kg/injection, schedule: Q04DX003 (ip), vehicle: water) 161 % of control; (dose: 3.75 mg/kg/injection, schedule: Q01DX005 (ip), vehicle: water) 154 % of control; (dose: 6.25 mg/kg/injection, schedule: Q04DX003 (ip), vehicle: water) 192 % of control and 200 % of control and 280 % of control; (dose: 7.5 mg/kg/injection, schedule: Q01DX005 (ip), vehicle: water) 151 % of control. For the same compound, the T/C was 154 % of control and 416 % of control (dose: 12.5 mg/kg/injection, schedule: Q04DX003 (ip), vehicle: water); 196 % of control (dose: 15.0 mg/kg/injection, schedule: Q01DX005 (ip), vehicle: water); 91 % of control (dose: 25.0 mg/kg/injection, schedule: Q04DX003 (ip), vehicle: water); 87 % of control (dose: 50.0 mg/kg/injection, schedule: Q04DX003 (ip), vehicle: water).
With `O=C1N[C@H]2[C@H](CS[C@H]2CCCCC(=O)N(CCP(c2ccccc2)c2ccccc2)CCP(c2ccccc2)c2ccccc2)N1`, the T/C was 104 % of control and 111 % of control under setting [1]; 101 % of control and 105 % of control under setting [2]; 103 % of control and 104 % of control under setting [3]; 108 % of control and 124 % of control under setting [4]; 114 % of control and 119 % of control under setting [5]; 102 % of control and 114 % of control (dose: 400.0 mg/kg/injection, schedule: Q01DX009 (ip), vehicle: Klucel (hydroxypropylcellulose) (HPC)).
Regarding `CCOC(=O)CC(C)=Nc1c(SC)sc(C#N)c1N`, the T/C was 97 % of control (dose: 100.0 mg/kg/injection, schedule: Q04DX002 (ip), vehicle: saline with Tween-80); 95 % of control (dose: 200.0 mg/kg/injection, schedule: Q04DX002 (ip), vehicle: saline with Tween-80); 91 % of control (dose: 400.0 mg/kg/injection, schedule: Q04DX002 (ip), vehicle: saline with Tween-80).
As to `O=c1[nH]c(-c2cccnc2)nnc1-c1ccc(Cl)cc1`, the T/C under setting [6] was 102 % of control, the T/C under setting [7] was 103 % of control and the T/C under setting [8] was 96 % of control.
Take `O=[N+]([O-])c1c(O)c(CNCCCO)cc(CNCCCO)c1O`: the T/C runs as follows: (dose: 25.0 mg/kg/injection, schedule: Q01DX009 (ip), vehicle: saline) 113 % of control; under setting [9], 116 % of control.
Consider `C/C=C\C(C)=C/C(C)C(=O)CC(O)CC1CC(=O)NC(=O)C1` (configuration not stated), for which the T/C by setting is: (dose: 1.56 mg/kg/injection, schedule: Q01DX009 (ip), vehicle: DMSO) 91 % of control; (dose: 3.12 mg/kg/injection, schedule: Q01DX009 (ip), vehicle: DMSO) 98 % of control; (dose: 6.25 mg/kg/injection, schedule: Q01DX009 (ip), vehicle: DMSO) 93 % of control; (dose: 12.5 mg/kg/injection, schedule: Q01DX009 (ip), vehicle: DMSO) 100 % of control; (dose: 25.0 mg/kg/injection, schedule: Q01DX009 (ip), vehicle: DMSO) 107 % of control.
Turning to `CC1OC(n2ccc(NC(=O)c3ccc(NC(=O)C(C)(N)CO)cc3)nc2=O)CCC1OC1OC(C)C(N(C)C)C(O)C1O` (configuration not stated), the T/C is, setting by setting: (dose: 100.0 mg/kg/injection, schedule: Q04DX003 (ip), vehicle: saline with Tween-80) 100 % of control; (dose: 200.0 mg/kg/injection, schedule: Q04DX003 (ip), vehicle: saline with Tween-80) 100 % of control; (dose: 400.0 mg/kg/injection, schedule: Q04DX003 (ip), vehicle: saline with Tween-80) 109 % of control.
Consider `CCN1C(=O)C(N2CCCCC2)S/C1=C\C(=O)O` (configuration not stated), for which the T/C was 97 % of control under setting [3], 110 % of control under setting [4] and 107 % of control under setting [5].
On to `O=C(c1ccccc1)c1ccccc1-c1nc2ccccc2c(=O)o1`, for which the T/C reads like this: under setting [3], 100 % of control; under setting [4], 95 % of control; under setting [5], 109 % of control.
For the compound `CC1(C2(C)CC2(Br)Br)CC1(Br)Br` (configuration not stated), the T/C runs as follows: (dose: 50.0 mg/kg/injection, schedule: Q01DX005 (ip), vehicle: Klucel (hydroxypropylcellulose) (HPC)) 101 % of control; (dose: 100.0 mg/kg/injection, schedule: Q01DX005 (ip), vehicle: Klucel (hydroxypropylcellulose) (HPC)) 102 % of control; (dose: 200.0 mg/kg/injection, schedule: Q01DX005 (ip), vehicle: Klucel (hydroxypropylcellulose) (HPC)) 114 % of control.
`O=C1COc2ccc(F)cc2N1`: the T/C was 102 % of control and 103 % of control (dose: 60.0 mg/kg/injection, schedule: Q01DX005 (ip), vehicle: Klucel (hydroxypropylcellulose) (HPC)); 101 % of control and 96 % of control (dose: 120.0 mg/kg/injection, schedule: Q01DX005 (ip), vehicle: Klucel (hydroxypropylcellulose) (HPC)); 101 % of control and 102 % of control (dose: 240.0 mg/kg/injection, schedule: Q01DX005 (ip), vehicle: Klucel (hydroxypropylcellulose) (HPC)).
With `C=C(Cl)/C=N/C(=O)NC(O)C(=C)Cl` (configuration not stated), the T/C reads like this: under setting [6], 93 % of control; under setting [7], 96 % of control; under setting [8], 93 % of control.
Consider `CC(C)(O)c1ccc[n+]([O-])c1`, for which the T/C by setting is: under setting [9], 98 % of control; (dose: 100.0 mg/kg/injection, schedule: Q01DX009 (ip), vehicle: saline) 107 % of control; (dose: 200.0 mg/kg/injection, schedule: Q01DX009 (ip), vehicle: saline) 100 % of control.
Take `COC(=O)[C@@]12OC[C@]34[C@H]([C@@H](O)[C@@H]1O)[C@@]1(C)CC(=O)C(OC(=O)CC(=O)OC5=C(C)[C@@H]6C[C@H]7OC(=O)[C@H](OC(=O)/C=C(\C)C(C)C)[C@H]8[C@]9(C(=O)OC)OC[C@]78[C@H]([C@@H](O)[C@@H]9O)[C@@]6(C)CC5=O)=C(C)[C@@H]1C[C@H]3OC(=O)[C@H](OC(=O)/C=C(\C)C(C)C)[C@@H]24`: the T/C was 121 % of control (dose: 0.19 mg/kg/injection, schedule: Q01DX009 (ip), vehicle: saline + Tween-80 + alcohol); 119 % of control (dose: 0.37 mg/kg/injection, schedule: Q01DX005 (ip), vehicle: saline + Tween-80 + alcohol); 110 % of control (dose: 0.38 mg/kg/injection, schedule: Q01DX005 (ip), vehicle: saline + Tween-80 + alcohol); 120 % of control (dose: 0.38 mg/kg/injection, schedule: Q01DX009 (ip), vehicle: saline + Tween-80 + alcohol); 114 % of control (dose: 0.75 mg/kg/injection, schedule: Q01DX005 (ip), vehicle: saline + Tween-80 + alcohol); 124 % of control (dose: 0.75 mg/kg/injection, schedule: Q01DX009 (ip), vehicle: saline + Tween-80 + alcohol). Moreover, the T/C is, setting by setting: (dose: 1.5 mg/kg/injection, schedule: Q01DX009 (ip), vehicle: saline + Tween-80 + alcohol) 165 % of control; (dose: 3.0 mg/kg/injection, schedule: Q01DX009 (ip), vehicle: saline + Tween-80 + alcohol) 163 % of control.
`S=c1sc2cccnc2s1`: the T/C is 99 % of control (dose: 12.5 mg/kg/injection, schedule: Q01DX009 (ip), vehicle: saline with Tween-80); 100 % of control (dose: 25.0 mg/kg/injection, schedule: Q01DX009 (ip), vehicle: saline with Tween-80); 104 % of control and 111 % of control (dose: 50.0 mg/kg/injection, schedule: Q01DX009 (ip), vehicle: saline with Tween-80).
As for `O=C1CCC2CC1CCC2=O`, the T/C reads like this: under setting [1], 111 % of control; under setting [2], 102 % of control; under setting [3], 109 % of control; under setting [4], 111 % of control.
As to `[O-][n+]1c2ccccc2[n+]([O-])c2c(O)cccc21`, the T/C is 113 % of control (dose: 3.12 mg/kg/injection, schedule: Q01DX009 (ip), vehicle: distilled water + Tween-80); 114 % of control and 121 % of control (dose: 6.25 mg/kg/injection, schedule: Q01DX009 (ip), vehicle: distilled water + Tween-80); 121 % of control (dose: 12.5 mg/kg/injection, schedule: Q01DX009 (ip), vehicle: distilled water + Tween-80); 119 % of control and 122 % of control (dose: 25.0 mg/kg/injection, schedule: Q01DX009 (ip), vehicle: distilled water + Tween-80).
In the case of `CN(N)c1nnnn1-c1ccccc1`, the T/C reads like this: under setting [3], 104 % of control; under setting [4], 117 % of control; under setting [5], 113 % of control.
